According to ChEMBL document CHEMBL4130353, “2-Substituted 3,7,8-trimethylnaphtho[1,2-b]furan-4,5-diones as specific L-shaped NQO1-mediated redox modulators for the treatment of non-small cell lung cancer” (Eur J Med Chem, 2017):
The source made the active and inactive calls. The calls are words filed in the database; no cut-off is given here.

Experiments:
A549 [1] = test: Antitumor activity against human A549 cells xenografted in athymic nude mouse assessed as tumor growth inhibition at 15 mg/kg, iv administered every other day for 3 weeks measured every day during compound dosing relative to control; assay type: functional; conditions: 504 h, read-out: TGI
A549 [2] = test: Effect on total AKT protein levels in human A549 cells at 1 uM after 3 hrs by Western blot analysis relative to control; assay type: ADME, cell-based; conditions: a549, 3 h
[3] = target: NAD(P)H dehydrogenase [quinone] 1 (Homo sapiens) (UniProt P15559); test: Substrate activity at NQO1 in human A549 cells assessed as induction of ROS-induced Akt phosphorylation at […] at 10 uM after 3 hrs in presence of NAC by Western blot analysis relative to control; assay type: cell-based
A549 [4] = test: Effect on total p38 protein levels in human A549 cells at 1 uM after 3 hrs by Western blot analysis relative to control; assay type: ADME, cell-based; conditions: a549, 3 h
A549 [5] = test: Induction of apoptosis in human A549 cells assessed as chromatin condensation after 24 hrs by DAPI-staining based microscopy; assay type: functional, cell-based
L02 = test: Cytotoxicity against human L02 cells assessed as cell growth inhibition preincubated for 24 hrs followed by compound washout measured after 72 hrs by MTT assay; assay type: cell-based
A549 [6] = test: Effect on total ERK protein levels in human A549 cells at 5 uM after 3 hrs by Western blot analysis relative to control; assay type: ADME, cell-based; conditions: a549, 3 h
A549 [7] = test: Induction of apoptosis in human A549 cells assessed as nuclei condensation at 0.1 to 5 uM after 24 hrs by DAPI-staining based microscopy; assay type: functional, cell-based
[8] = target: NAD(P)H dehydrogenase [quinone] 1 (Homo sapiens) (UniProt P15559); test: Substrate activity at NQO1 in human A549 cells assessed as induction of ROS-induced Akt phosphorylation at S473 after 3 hrs by Western blot analysis; assay type: cell-based
[9] = target: NAD(P)H dehydrogenase [quinone] 1 (Homo sapiens) (UniProt P15559); test: Substrate activity at NQO1 in human A549 cells assessed as induction of ROS-induced p38 phosphorylation at T180/Y182 at 5 uM after 3 hrs by Western blot analysis relative to control; assay type: cell-based
A549 [10] = test: Reduction of intracellular GSH levels in human A549 cells xenografted in athymic nude mouse at 15 to 30 mg/kg, iv administered every other day for 3 weeks by fluorescence-based assay; assay type: functional, organism-based
[11] = target: NAD(P)H dehydrogenase [quinone] 1 (Homo sapiens) (UniProt P15559); test: Substrate activity at NQO1 in human A549 cells assessed as induction of ROS-induced JNK phosphorylation after 3 hrs by Western blot analysis; assay type: cell-based
A549 [12] = test: Cytotoxicity against human A549 cells assessed as cell growth inhibition preincubated for 24 hrs followed by compound washout measured after 72 hrs in presence of NQO1 inhibitor DIC by MTT assay; assay type: functional, cell-based
[13] = target: NAD(P)H dehydrogenase [quinone] 1 (Homo sapiens) (UniProt P15559); test: Substrate activity at NQO1 in human A549 cells assessed as induction of ROS-induced Akt phosphorylation at S473 at 1 uM after 3 hrs by Western blot analysis relative to control; assay type: cell-based
A549 [14] = test: Effect on total AKT protein levels in human A549 cells at 10 uM after 3 hrs by Western blot analysis relative to control; assay type: ADME, cell-based; conditions: a549, 3 h
A549 [15] = test: Antitumor activity against human A549 cells xenografted in athymic nude mouse assessed as tumor growth inhibition at 50 mg/kg, iv administered every other day for 3 weeks measured every day during compound dosing relative to control; assay type: functional; conditions: 504 h, read-out: TGI
[16] = target: NAD(P)H dehydrogenase [quinone] 1 (Homo sapiens) (UniProt P15559); test: Substrate activity at NQO1 in human A549 cells assessed as induction of ROS-induced p38 phosphorylation at T180/Y182 at 10 uM after 3 hrs in presence of DIC by Western blot analysis relative to control; assay type: cell-based
[17] = target: NAD(P)H dehydrogenase [quinone] 1 (Homo sapiens) (UniProt P15559); test: Substrate activity at NQO1 in human A549 cells assessed as induction of ROS-induced JNK phosphorylation at 5 uM after 3 hrs by Western blot analysis relative to control; assay type: cell-based
[18] = target: NAD(P)H dehydrogenase [quinone] 1 (Homo sapiens) (UniProt P15559); test: Substrate activity at NQO1 in human A549 cells assessed as induction of ROS-induced ERK phosphorylation at 10 uM after 3 hrs in presence of NAC by Western blot analysis relative to control; assay type: cell-based
[19] = target: NAD(P)H dehydrogenase [quinone] 1 (Homo sapiens) (UniProt P15559); test: Substrate activity at NQO1 in human A549 cells assessed as induction of ROS-induced Akt phosphorylation at S473 at 5 uM after 3 hrs by Western blot analysis relative to control; assay type: cell-based
[20] = target: NAD(P)H dehydrogenase [quinone] 1 (Homo sapiens) (UniProt P15559); test: Substrate activity at NQO1 in human A549 cells assessed as induction of ROS-induced Akt phosphorylation at […] at 1 uM after 3 hrs by Western blot analysis relative to control; assay type: cell-based
[21] = target: NAD(P)H dehydrogenase [quinone] 1 (Homo sapiens) (UniProt P15559); test: Substrate activity at NQO1 in human A549 cells assessed as induction of ROS-induced JNK phosphorylation at 10 uM after 3 hrs in presence of DIC by Western blot analysis relative to control; assay type: cell-based
Danio rerio = species on record: Danio rerio; test: Hepatotoxicity in 48 hrs post fertilized transgenic liver zebrafish larvae model expressing LFABP:EGFP protein at 10 uM measured after 48 hrs post dose by fluorescence based assay; assay type: organism-based; conditions: in vivo
[22] = Effective permeability of the compound at pH 7.4 by PAMPA assay; assay type: ADME; conditions: read-out: Peff
A549 [23] = test: Effect on total AKT protein levels in human A549 cells at 5 uM after 3 hrs by Western blot analysis relative to control; assay type: ADME, cell-based; conditions: a549, 3 h
[24] = Lipophilicity, log D of the compound at pH 7.4; assay type: physicochemical; conditions: buffer
[25] = target: NAD(P)H dehydrogenase [quinone] 1 (Homo sapiens) (UniProt P15559); test: Substrate activity at NQO1 in human A549 cells assessed as induction of ROS-induced p38 phosphorylation at T180/Y182 at 10 uM after 3 hrs in presence of NAC by Western blot analysis relative to control; assay type: cell-based
A549 [26] = test: Induction of apoptosis in human A549 cells assessed as increase in cleaved PARP expression at 10 uM after 24 hrs in presence of DIC by Western blot analysis; assay type: functional, cell-based
NCI-H1299 = test: Cytotoxicity against human NCI-H1299 cells assessed as assessed as cell growth inhibition for 24 hrs followed by compound washout measured after 72 hrs by MTT assay; assay type: functional, cell-based
[27] = target: NAD(P)H dehydrogenase [quinone] 1 (Homo sapiens) (UniProt P15559); test: Substrate activity at NQO1 in human A549 cells assessed as induction of ROS-induced ERK phosphorylation at 10 uM after 3 hrs in presence of DIC by Western blot analysis relative to control; assay type: cell-based
A549 [28] = test: Effect on total ERK protein levels in human A549 cells at 10 uM after 3 hrs by Western blot analysis relative to control; assay type: ADME, cell-based; conditions: a549, 3 h
A549 [29] = test: Effect on total ERK protein levels in human A549 cells at 10 uM after 3 hrs in presence of NAC by Western blot analysis relative to control; assay type: ADME, cell-based; conditions: a549, 3 h
A549 [30] = test: Effect on total ERK protein levels in human A549 cells at 10 uM after 3 hrs in presence of DIC by Western blot analysis relative to control; assay type: ADME, cell-based; conditions: a549, 3 h
Homo sapiens = species on record: Homo sapiens; test: Selectivity ratio for substrate activity at recombinant human NQO1 to substrate activity at CBR (unknown origin)
A549 [31] = test: Induction of ROS levels in human A549 cells xenografted in athymic nude mouse at 15 to 30 mg/kg, iv administered every other day for 3 weeks by DCFH-DA-probe based flow cytometry; assay type: functional, organism-based
[32] = target: NAD(P)H dehydrogenase [quinone] 1 (Homo sapiens) (UniProt P15559); test: Substrate activity at NQO1 in human A549 cells assessed as induction of ROS-induced Akt phosphorylation at […] at 10 uM after 3 hrs in presence of DIC by Western blot analysis relative to control; assay type: cell-based
A549 [33] = test: Effect on total AKT protein levels in human A549 cells at 10 uM after 3 hrs in presence of DIC by Western blot analysis relative to control; assay type: ADME, cell-based; conditions: a549, 3 h

Sequence of NAD(P)H dehydrogenase [quinone] 1 (Homo sapiens) (P15559 whole entry): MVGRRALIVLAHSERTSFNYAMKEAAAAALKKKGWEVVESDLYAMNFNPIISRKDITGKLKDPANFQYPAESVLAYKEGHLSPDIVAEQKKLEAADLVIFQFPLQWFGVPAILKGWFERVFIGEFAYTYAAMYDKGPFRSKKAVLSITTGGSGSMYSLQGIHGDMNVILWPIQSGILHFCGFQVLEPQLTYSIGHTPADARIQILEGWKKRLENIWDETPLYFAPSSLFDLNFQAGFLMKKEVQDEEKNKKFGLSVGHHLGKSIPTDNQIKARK

SMILES: Cc1cc2c(cc1C)-c1oc(CNc3ccc(CN4CCOCC4)cc3)c(C)c1C(=O)C2=O
- inhibition in vivo at 15 mg/kg (A549 [1]): 65.8%
- fold change (FC) (A549 [2]): 1.07
- fold change (FC) [3]: 2.8
- fold change (FC) (A549 [4]): 0.93
- Activity (A549 [5]): Dose-dependent effect
- IC50 (L02): 35 µM
- fold change (FC) (A549 [6]): 0.97
- Activity (A549 [7]): Active
- Activity [8]: Dose-dependent effect
- fold change (FC) [9]: 12.1
- Activity (A549 [10]): Active
- Activity [11]: Dose-dependent effect
- IC50 (A549 [12]): > 50 µM
- fold change (FC) [13]: 1.51
- fold change (FC) (A549 [14]): 1.3
- inhibition in vivo at 50 mg/kg (A549 [15]): 90.3%
- fold change (FC) [16]: 9.2
- fold change (FC) [17]: 25.4
- fold change (FC) [18]: 2.21
- fold change (FC) [19]: 2.01
- fold change (FC) [20]: 2.38
- fold change (FC) [21]: 7.1
- Activity (Danio rerio): Non-Toxic
- Papp [22]: 46.5 ×10⁻⁶ cm/s
- fold change (FC) (A549 [23]): 1.14
- logD [24]: 3.1
- fold change (FC) [25]: 11.2
- Activity (A549 [26]): inactive
- IC50 (NCI-H1299): 3.8 µM
- fold change (FC) [27]: 1.27
- fold change (FC) (A549 [28]): 1.02
- fold change (FC) (A549 [29]): 1.11
- fold change (FC) (A549 [30]): 0.87
- Selectivity ratio (Homo sapiens): 8.49
- Activity (A549 [31]): Active
- fold change (FC) [32]: 1.96
- fold change (FC) (A549 [33]): 1.15
